The values that follow come from US11325982B2, “Biparatopic and multiparatopic antibodies with common light chain and method of use” (XUANZHU BIOPHARMACEUTICAL CO., LTD., priority 2017, dated 2022).

This assay relates to NCI-N87 cells. Kind of assay: Inhibition of proliferation of NCI-N87 cells (CCK-8). In kind it is cell-based. The following applies: 72 hours, FIG. 14.
Protocol: The growth curve of NCI-N87 was initially determined by plating cells at various densities in 96-well tissue culture plates. Cells were gown in RPMI-1640 medium supplemented with 10% fetal bovine serum (FBS).
24 hours later, 10 μl of antibody construct diluted to various concentrations with the medium were added to the cell culture. After the cells were cultured for additional 72 hours, the cell proliferation rates were determined by adding 10 μl of CCK-8 reagent (Sigma). After 3 hour of incubation without light, the plates were read at OD450 nm. The wells without addition of antibody were set as 100% cell viability and Docetaxel was used as a positive control for cytotoxicity. The data were then fitted into 4-parameter sigmoidal curve to generate IC50. The samples were done in triplicate.
With “T52: Biparatopic Fab-Ig: Bip_mAb_HC12 (VH_Pert_T30A/G56A; VH_Tra_N54T/D98S) with Tra_LC_N30S_S56Y”, the growth inhibition entry was “inhibited growth” and the “growth inhibition effect compared with other antibodies” value is recorded as “had greater effect than pertuzumab (mAb T1) or trastuzumab (mAb T22)”.

As for “T51: Biparatopic Fab-Ig: Bip_mAb_HC11 (VH_Pert_T30A; VH_Tra_N54T/D98S) with Tra_LC_N30S_S56Y; Fc M428L”, the growth inhibition entry is reported as “inhibited growth” and the “growth inhibition effect compared with other antibodies” value is recorded as “had greater effect than pertuzumab (mAb T1) or trastuzumab (mAb T22)”.

On to “T54: Biparatopic knob/hole heterodimer: HC14 (pert T30A) and HC15 (Tra N54T/D98S) with Tra_LC_N30S_S56Y”, for which the growth inhibition entry was “inhibited growth” and the “growth inhibition effect compared with other antibodies” value is recorded as “had greater effect than pertuzumab (mAb T1) or trastuzumab (mAb T22)”.

For pertuzumab [T1, reference compound], the growth inhibition result was “minimal effect” and the “growth inhibition effect compared with other antibodies” value is “somewhat greater effect”.
